From ChEMBL document CHEMBL1149774, “Synthesis of N-(5,7-diamino-3-phenyl-quinoxalin-2-yl)-3,4,5-substituted anilines and N-[4[(5,7-diamino-3-phenylquinoxalin-2-yl)amino]benzoyl]-l-glutamic acid diethyl ester: evaluation of in vitro anti-cancer and anti-folate activities” (Eur J Med Chem, 2008)

What was measured:
Assay type in all cases: functional
OVCAR-8 = experiment: Growth inhibition of human OVCAR8 cells after 48 hrs by SRB staining method; details: OVCAR-8, 48 h
BT-549 = experiment: Growth inhibition of human BT549 cells after 48 hrs by SRB staining method; details: BT-549, 48 h
A498 = experiment: Growth inhibition of human A498 cells after 48 hrs by SRB staining method; details: A498, 48 h
SK-MEL-2 = experiment: Growth inhibition of human SK-MEL-2 cells after 48 hrs by SRB staining method; details: SK-MEL-2, 48 h
UACC-62 = experiment: Growth inhibition of human UACC62 cells after 48 hrs by SRB staining method; details: UACC-62, 48 h
SF-295 = experiment: Growth inhibition of human SF295 cells after 48 hrs by SRB staining method; details: SF-295, 48 h
NCI-H226 = experiment: Growth inhibition of human NCI-H226 cells after 48 hrs by SRB staining method; details: NCI-H226, 48 h
NCI-H460 = experiment: Growth inhibition of human NCI-H460 cells after 48 hrs by SRB staining method; details: NCI-H460, 48 h
PC-3 = experiment: Growth inhibition of human PC3 cells after 48 hrs by SRB staining method; details: PC-3, 48 h
UO-31 = experiment: Growth inhibition of human UO31 cells after 48 hrs by SRB staining method; details: UO-31, 48 h
Malme-3M = experiment: Growth inhibition of human MALME-3M cells after 48 hrs by SRB staining method
T47D = experiment: Growth inhibition of human T47D cells after 48 hrs by SRB staining method
786-0 = experiment: Growth inhibition of human 786-0 cells after 48 hrs by SRB staining method; details: 786-0, 48 h
SK-OV-3 = experiment: Growth inhibition of human SKOV3 cells after 48 hrs by SRB staining method; details: SK-OV-3, 48 h
SR = experiment: Growth inhibition of human SR cells after 48 hrs by SRB staining method
CAKI-1 = experiment: Growth inhibition of human CAKI1 cells after 48 hrs by SRB staining method; details: CAKI-1, 48 h
NCI-H23 = experiment: Growth inhibition of human NCI-H23 cells after 48 hrs by SRB staining method; details: NCI-H23, 48 h
MCF7 = experiment: Growth inhibition of human MCF7 cells after 48 hrs by SRB staining method; details: MCF7, 48 h
U-251 = experiment: Growth inhibition of human U251 cells after 48 hrs by SRB staining method; details: U-251, 48 h
HCT-15 = experiment: Growth inhibition of human HCT15 cells after 48 hrs by SRB staining method; details: HCT-15, 48 h
IGROV-1 = experiment: Growth inhibition of human IGROV1 cells after 48 hrs by SRB staining method; details: IGROV-1, 48 h
DU-145 = experiment: Growth inhibition of human DU145 cells after 48 hrs by SRB staining method; details: DU-145, 48 h
RXF 393 = experiment: Growth inhibition of human RXF393 cells after 48 hrs by SRB staining method; details: RXF 393, 48 h
OVCAR-5 = experiment: Growth inhibition of human OVCAR5 cells after 48 hrs by SRB staining method; details: OVCAR-5, 48 h
SF-268 = experiment: Growth inhibition of human SF268 cells after 48 hrs by SRB staining method; details: SF-268, 48 h
MDA-MB-231 = experiment: Growth inhibition of human MDA-MB-231 cells after 48 hrs by SRB staining method; details: MDA-MB-231, 48 h
NCI/ADR-RES = experiment: Growth inhibition of human NCI/ADR-RES cells after 48 hrs by SRB staining method
ACHN = experiment: Growth inhibition of human ACHN cells after 48 hrs by SRB staining method
UACC-257 = experiment: Growth inhibition of human UACC257 cells after 48 hrs by SRB staining method; details: UACC-257, 48 h
K562 = experiment: Growth inhibition of human K562 cells after 48 hrs by SRB staining method; details: K562, 48 h
SNB-19 = experiment: Growth inhibition of human SNB19 cells after 48 hrs by SRB staining method; details: SNB-19, 48 h
COLO 205 = experiment: Growth inhibition of human COLO205 cells after 48 hrs by SRB staining method; details: COLO 205, 48 h
[1] = read-out: pLC50 (the source's name) (converted)

COc1ccc(Nc2nc3cc(N)cc(N)c3nc2-c2ccccc2)cc1OC
GI50 (OVCAR-8): 33.9 µM | CC50 (OVCAR-8; [1]): > 100 µM | TGI (OVCAR-8; read-out: pTGI (converted)): > 100 µM | GI50 (BT-549): 25.7 µM | CC50 (BT-549; [1]): > 100 µM | TGI (BT-549; read-out: pTGI (converted)): 81.3 µM | GI50 (A498): 11.7 µM | CC50 (A498; [1]): > 100 µM | TGI (A498; read-out: pTGI (converted)): 56.2 µM | GI50 (SK-MEL-2): 26.9 µM | LC50 (SK-MEL-2): > 100 µM | TGI (SK-MEL-2; read-out: pTGI (converted)): > 100 µM | GI50 (UACC-62): 13.5 µM | LC50 (UACC-62): 56.2 µM | TGI (UACC-62; read-out: pTGI (converted)): 27.5 µM | GI50 (SF-295): 17 µM | LC50 (SF-295): > 100 µM | TGI (SF-295; read-out: pTGI (converted)): 45.7 µM | GI50 (NCI-H226): 18.6 µM | LC50 (NCI-H226): > 100 µM | TGI (NCI-H226; read-out: pTGI (converted)): 57.5 µM | GI50 (NCI-H460): 20.4 µM | LC50 (concentration killing 50% of cells) (NCI-H460): > 100 µM | TGI (NCI-H460; read-out: pTGI (converted)): > 100 µM | GI50 (PC-3): 14.1 µM | CC50 (PC-3; [1]): 93.3 µM | TGI (PC-3; read-out: pTGI (converted)): 36.3 µM | GI50 (UO-31): 28.2 µM | CC50 (UO-31; [1]): > 100 µM | TGI (UO-31; read-out: pTGI (converted)): > 100 µM | GI50 (Malme-3M): 15.8 µM | LC50 (Malme-3M): 81.3 µM | TGI (Malme-3M; read-out: pTGI (converted)): 35.5 µM | GI50 (T47D): 14.5 µM | CC50 (T47D; [1]): > 100 µM | TGI (T47D; read-out: pTGI (converted)): 38 µM | GI50 (786-0): 24 µM | CC50 (786-0; [1]): > 100 µM | TGI (786-0; read-out: pTGI (converted)): 91.2 µM | GI50 (SK-OV-3): 38 µM | CC50 (SK-OV-3; [1]): > 100 µM | TGI (SK-OV-3; read-out: pTGI (converted)): 87.1 µM | GI50 (SR): 2690 nM | CC50 (SR; [1]): > 100 µM | TGI (SR; read-out: pTGI (converted)): 21.9 µM | GI50 (CAKI-1): 18.2 µM | CC50 (CAKI-1; [1]): > 100 µM | TGI (CAKI-1; read-out: pTGI (converted)): 66.1 µM | GI50 (NCI-H23): 26.3 µM | LC50 (NCI-H23): > 100 µM | TGI (NCI-H23; read-out: pTGI (converted)): 79.4 µM | GI50 (MCF7): 20.4 µM | CC50 (MCF7; [1]): 97.7 µM | TGI (MCF7; read-out: pTGI (converted)): 44.7 µM | GI50 (U-251): 25.7 µM | LC50 (50% lethal concentration) (U-251): > 100 µM | TGI (U-251; read-out: pTGI (converted)): > 100 µM | GI50 (HCT-15): 28.8 µM | LC50 (HCT-15): > 100 µM | TGI (HCT-15; read-out: pTGI (converted)): > 100 µM | GI50 (IGROV-1): 24.5 µM | LC50 (IGROV-1): > 100 µM | TGI (IGROV-1; read-out: pTGI (converted)): > 100 µM | GI50 (DU-145): 44.7 µM | CC50 (DU-145; [1]): > 100 µM | TGI (DU-145; read-out: pTGI (converted)): > 100 µM | GI50 (RXF 393): 8.13 µM | CC50 (RXF 393; [1]): > 100 µM | TGI (RXF 393; read-out: pTGI (converted)): 49 µM | GI50 (OVCAR-5): 29.5 µM | LC50 (OVCAR-5): > 100 µM | TGI (OVCAR-5; read-out: pTGI (converted)): 72.4 µM | GI50 (SF-268): 14.1 µM | CC50 (SF-268; [1]): > 100 µM | TGI (SF-268; read-out: pTGI (converted)): 46.8 µM | GI50 (MDA-MB-231): 4.9 µM | CC50 (MDA-MB-231; [1]): 46.8 µM | TGI (MDA-MB-231; read-out: pTGI (converted)): 18.6 µM | GI50 (NCI/ADR-RES): 17.4 µM | CC50 (NCI/ADR-RES; [1]): > 100 µM | TGI (NCI/ADR-RES; read-out: pTGI (converted)): 42.7 µM | GI50 (ACHN): 27.5 µM | CC50 (ACHN; [1]): > 100 µM | TGI (ACHN; read-out: pTGI (converted)): > 100 µM | GI50 (UACC-257): 35.5 µM | LC50 (UACC-257): > 100 µM | TGI (UACC-257; read-out: pTGI (converted)): > 100 µM | GI50 (K562): 20.4 µM | CC50 (K562; [1]): > 100 µM | TGI (K562; read-out: pTGI (converted)): 70.8 µM | GI50 (SNB-19): 35.5 µM | LC50 (SNB-19): > 100 µM | TGI (SNB-19; read-out: pTGI (converted)): > 100 µM | GI50 (COLO 205): 20 µM | LC50 (COLO 205): 85.1 µM | TGI (COLO 205; read-out: pTGI (converted)): 40.7 µM
